Where “and” joins values, the source holds several entries; their conditions need not be identical. Identical values can stand only once. Like-named read-outs stand apart in the source and are kept apart here.
Experiments:
FaDuDD tumors [1] = test: BIWI 1 combination with cisplatin in nude mice xenografted with FaDuDD tumors; type: in vivo, mouse; conditions: cisplatin 4 mg/kg i.v. q7dx4
Description: (§1) The antibody solution was injected into the tail vein with an injection volume of 200 μl for a 25 g mouse. In the control groups without BIWI 1 treatment animals were injected i.v. with PBS. […] The solution was injected into the tail vein with an injection volume of 200 μl for a 25 g mouse. […] The solution was injected into the tail vein with an injection volume of 200 μl for a 25 g mouse.
(§2) Tumor sizes and body weights were recorded 2-3 times per week. Tumor sizes were measured with a calliper (length and width) and the volume was calculated according to the following formula: volume (length)×(width)^2×([…]). The tolerability of the treatment was monitored by measuring mouse weight during the whole observation period. […] For calculation of the mean tumor volumes per group, the last values of tumor size for individual animals were carried forward in case that these animals had to be sacrificed due to large tumor burden before the whole group was terminated. In addition to the absolute tumor volume in mm^3, the relative tumor volumes (RTV) were calculated as follows:
(§3) RTV=(tumor volume at day x)/(tumor volume at start of treatment)×100 For the evaluation of treatment efficacy the following parameters were calculated: • T/C (%)=(mean RTV of treated group)/(mean RTV of control group)×100 • T4T (tumor quadrupling time)=time until the mean RTV reaches 400% • GDF4 (growth delay factor)=T4T treated/T4T control.
(§4) In addition, for some experiments, the mean time for tumors to reach 8 times (T8T) their initial sizes were also calculated. The growth delay factor (GDF8) was then calculated accordingly. Percentages of mean relative tumor volumes of treated versus control groups (T/C) were calculated on the days indicated. For statistical evaluation of combination therapies exact Wilcoxon tests were used. Tolerability was assessed by monitoring body weight changes.
A different set of experiments was done with cisplatin. In a pilot experiment, a dose of 4 mg/kg cisplatin administered i.v. four times in weekly intervals was determined to be non-curative in this model, and also represents the maximum tolerated dose in the mouse strain used. This dose of cisplatin was combined with BIWI 1 at the non-curative doses of 200 μg/kg DM1 and 300 Ag/kg DM1 already used in the previous experiment. […] In the latter combination group 2/8 complete tumor regressions could be observed. […] Treatment was well tolerated in all groups.

[2] = Tolerability in FaDu combination experiments (body weight); type: in vivo, mouse
Description: as §2, with “follows: […]” for “follows:”
as §4

MDA-MB-453 tumors [3] = tested on: MDA-MB-453 tumors
Description: Experiments were performed using nude mice xenografted subcutaneously with the human breast carcinoma cell line MDA-MBA53. […] The efficacy of these combinations was compared to those of the respective monotherapies by i) analysing the tumor volumes over time and ii) by determining the time for tumors to reach a certain size (tumor growth delay).
The dilutions were prepared freshly for each application or stored at +4° C. during the whole treatment period. […] 200 μl of solutions with different concentrations were injected into the tail vein. Docetaxel (Taxotere®, Aventis, 10 mg/ml) was diluted in 0.9% NaCl. 200 μl of solutions with different concentrations were injected into the tail vein.
Briefly, 1×10^7 MDA-MB-453 cells (ATCC No. HTB-131) were injected into the mammary fat pad of female NMRI nu/nu mice. After reaching a volume of approximately 1000 mm^3 tumors were excised, cut into 4×4 mm pieces and passaged further subcutaneously. Tumor fragments were cryoconserved in 90% RPMI 1640/10% dimethylsulfoxide (slow freezing process down to −80° C., storage in liquid nitrogen). For further passaging, frozen tumor fragments were thawed, washed 3 times in PBS and implanted subcutaneously into the right and left flanks of a 4-5 female NMRI nu/nu mice. Tumors of these mice were then used to prepare the animals for a therapy experiment. Tumors were excised with a size of approximately 10 mm in diameter, cut into 2×2 mm pieces and implanted subcutaneously into the right flank of 6-8 week old female NMRI nu/nu mice. Approximately twice as many animals as needed for the experiment were prepared. When tumors reached a size of 5-10 mm in diameter (10-14 days after implantation), animals were randomised and treatments were started. Animals were obtained from Harlan (Germany) or M&B (Denmark). Tumor sizes and body weights were recorded as described in Section 2.7.

FaDuDD tumors [4] = test: BIWI 1 combination with docetaxel in nude mice xenografted with FaDuDD tumors; type: in vivo, mouse; conditions: docetaxel 3 mg/kg i.v. q7dx4
Description: as §1, §2, §3, §4
To assess the efficacy of BIWI 1 in combination with the taxane docetaxel (Taxotere), non-curative doses of both drugs were tested as single agents or in combination in nude mice xenografted with FADuDD tumors. In pilot experiments a dose of 3 mg/kg docetaxel (q7dx4) was determined to be non-curative in this model. BIWI 1 was used at the non-curative dose of 200 μg/kg DM 1 and at a somewhat higher dose (300 μg/kg DM1).
The effect was somewhat more pronounced in the two BIWI 1 monotherapy treatment groups with T/C 41-30% and GDF4: 2.8-4.4. Complete tumor regression could be observed in 1/8 cases with the higher BIWI 1 dose. […] Treatment was well tolerated in all groups, except for a slight unexplained weight loss (approx. −5%) in the docetaxel monotherapy group.

[5] = tested on: breast carcinoma xenografts; test: BIWI 1 (five daily doses) combination with paclitaxel in human breast carcinoma xenograft model; type: in vivo, mouse
Description: BIWI was given i.v. into the tail vein at doses of 50 μg DM1/kg/day or 100 μg DM1/kg/day for five consecutive days. Paclitaxel (Taxol®) was given i.v. at 20 or 10 mg/kg, doxorubicin (Adriamycin®) at 6 or 4 mg/kg only on the first day of the treatment period, in each case 4 hours after BIWI 1 treatment. In mice bearing breast carcinoma xenografts with a volume of approximately 100 mm3.

FaDu tumors [6] = test: BIWI 1 combination therapy with paclitaxel in the FaDu xenograft model; type: in vivo, mouse; conditions: or both
Description: (§5) In vivo anti-tumor efficacy of BIWI 1 was tested in three nude mouse xenograft models applying antigen-positive human tumors: A431 (ATCC # CRL 1555; epidermoid carcinoma of the vulva), FaDu (ATCC # HTB 43; squamous cell carcinoma of the pharynx), and MDA-MB 453 (ATCC # HTB-131; breast carcinoma). The cells were received from ATCC and cultured in RPMI1640 medium containing 10% fetal calf serum and supplements. 1×10^6 tumors cells were transplanted subcutaneously into the right flank of 6 week old female NMRI-nu/nu mice. Tumor growth was monitored by measuring tumor size. A tumor response was rated as complete response when the tumor completely disappeared at any time after start of treatment. The response was rated as partial response when the tumor volume decreased after treatment but thereafter started regrowing. The tolerability of the treatment was monitored by measuring mouse weight during the observation period.
Mice were randomised into the following treatment groups (treatment/initial mean tumor volume/tumor volume range/number of mice): • Group 1: Control (PBS)/197 mm^3/65-402 mm^3/8 mice • Group 2: Paclitaxel/182 mm^3 /65%-302 mm^3/8 mice • Group 3: BIWI 1/208 mm^3 /65-382 mm^3/8 mice • Group 4: BIWI 1+paclitaxel/159 mm^3 /79-335 mm^3 /7 mice
Treatment consisted either of five i.v. injections of BIWI 1 (7 mg/kg corresponding to 100 μg/kg DM1) at day 1, 3, 5, 8, 10, or of six i.p. injections of paclitaxel (10 mg/kg) at day 2, 4, 6, 9, 11, 13, respectively, or a combination thereof. Control animals were treated with PBS.
One tumor completely dissappeared during treatment and the animal remained tumor free until the end of the observation period.

[7] = Tolerability in MDA-MB-453 combination experiments (body weight); type: in vivo, mouse; conditions: doxorubicin 6 mg/kg monotherapy group; combination group with BIWI 1 75 μg/kg DM1; 6 animals per group
Description: as §2, with “follows: […]” for “follows:”
as §4

MDA-MB-453 tumors [8] = test: BIWI 1 combination with doxorubicin in nude mice xenografted with MDA-MB-453 tumors; type: in vivo, mouse; conditions: doxorubicin 6 mg/kg i.v. q7dx4
Description: Similar experiments as outlined under Section 2.6 were undertaken in a human breast carcinoma xenograft model. Experiments were performed using nude mice xenografted subcutaneously with the human breast carcinoma cell line MDA-MBA53. […] The efficacy of these combinations was compared to those of the respective monotherapies by i) analysing the tumor volumes over time and ii) by determining the time for tumors to reach a certain size (tumor growth delay).
The dilutions were prepared freshly for each application or stored at +4° C. during the whole treatment period. […] Doxorubicin (Doxorubicin “Ebewe”®, 2 mg/ml) was diluted in PBS. 200 μl of solutions with different concentrations were injected into the tail vein. Docetaxel (Taxotere®, Aventis, 10 mg/ml) was diluted in 0.9% NaCl. 200 μl of solutions with different concentrations were injected into the tail vein.
The xenograft model was handled slightly different as outlined under Section 2.1. Briefly, 1×10^7 MDA-MB-453 cells (ATCC No. HTB-131) were injected into the mammary fat pad of female NMRI nu/nu mice. After reaching a volume of approximately 1000 mm^3 tumors were excised, cut into 4×4 mm pieces and passaged further subcutaneously. Tumor fragments were cryoconserved in 90% RPMI 1640/10% dimethylsulfoxide (slow freezing process down to −80° C., storage in liquid nitrogen). For further passaging, frozen tumor fragments were thawed, washed 3 times in PBS and implanted subcutaneously into the right and left flanks of a 4-5 female NMRI nu/nu mice. Tumors of these mice were then used to prepare the animals for a therapy experiment. Tumors were excised with a size of approximately 10 mm in diameter, cut into 2×2 mm pieces and implanted subcutaneously into the right flank of 6-8 week old female NMRI nu/nu mice. Approximately twice as many animals as needed for the experiment were prepared. When tumors reached a size of 5-10 mm in diameter (10-14 days after implantation), animals were randomised and treatments were started. Animals were obtained from Harlan (Germany) or M&B (Denmark). Tumor sizes and body weights were recorded as described in Section 2.7.

cells = conditions: free DM1, literature background; cited from earlier work
A431 tumors = test: BIWI 1 monotherapy in A431 xenografted nude mice; type: in vivo, mouse; conditions: 21 mg/kg/d control antibody i.v., five consecutive days
Description: as §5
Mice were randomised into the following treatment groups (treatment/initial mean tumor volume/tumor volume range/number of mice): • Group 1: Control (PBS)/185±217 mm^3/19-424 mm^3/5 mice. • Group 2: BIWA 4 (21 mg/kg/d)/133±115 mm^3/42-302 mm^3/5 mice. • Group 3: BIWI 1 (2.1 mg/kg/d)/107±63 mm^3/42-205 mm^3′/5 mice. • Group 4: BIWI 1 (7 mg/kg/d)/132±73 mm^3/42-205 mm^3/5 mice. • Group 5: BIWI 1 (21 mg/kg/d)/107±[…]/42-205 mm^3/5 mice.
(§6) Groups of 5 mice were treated with 2.1 mg/kg/d BIWI 1, 7 mg/kg/d BIWI 1, 21 mg/kg/d BIWI 1, and 21 mg/kg/d control antibody, respectively. Treatment consisted of i.v. injections of BIWI 1 given on five consecutive days, starting at day 1.

FaDu tumors [9] = test: BIWI 1 monotherapy in FaDu xenografted nude mice; type: in vivo, mouse; conditions: 21 mg/kg/d control antibody i.v., five consecutive days
Description: as §5
Mice were randomised into the following treatment groups (treatment/initial mean tumor volume/tumor volume range/number of mice): • Group 1: Control (PBS)/142±82 mm^3/34-268 mm^3 /8 mice. • Group 2: BIWA 4 (21 mg/kg/d)/134±86 mm^3/42-268 mm^3/6 mice. • Group 3: BIWI 1 (2.1 mg/kg/d) 149±96 mm^3/50-268 mm^3/6 mice. • Group 4: BIWI 1 (7 mg/kg/d)/132±97 mm^3 42-268 mm^3/6 mice. • Group 5: BIWI 1 (21 mg/kg/d)/129±74 mm^3/50-231 mm^3/6 mice.
as §6, with “6” for “5”, “1. […] The remaining 2 tumors grew similar to untreated control tumors.” for “1.”

[10] = tested on: antigen-positive FaDu cells; test: In vitro binding to FaDu cells (FACS); conditions: 1 hour on ice, FITC-labeled anti-human IgG, read-out: apparent KD
Description: The binding of BIWA 4 antibody and BIWI 1 conjugate to antigen-positive FaDu cells was determined. Cells ([…]) were incubated in 96-well plates with varying concentrations of antibody or conjugate on ice for 1 hour. The test article was washed from the plate and FITC-labeled anti-human IgG was added and the incubation on ice was continued in the dark for 1 hour. After washing, the cells were fixed with 1% paraformaldehyde and analyzed on a fluorescence activated cell sorter (FACS).

[11] = BIWI 1 7 mg/kg i.v. x5, paclitaxel 10 mg/kg i.p. x6

Molecule: N.N.[Cl][Pt][Cl] [Cisplatin, reference compound]
- GDF4 (FaDuDD tumors [1]): 1.1
- T4T (FaDuDD tumors [1]): 11.3 days
- T/C (d 19) (FaDuDD tumors [1]): 100%
- maximum tolerated dose in the mouse strain used ([2]; cisplatin i.v. four times in weekly intervals, pilot experiment): 4 mg/kg

Molecule: CC(=O)O[C@@]12CO[C@@H]1C[C@H](O)[C@@]1(C)C(=O)[C@H](O)C3=C(C)[C@@H](OC(=O)[C@H](O)[C@@H](NC(=O)OC(C)(C)C)c4ccccc4)C[C@@](O)([C@@H](OC(=O)c4ccccc4)[C@H]21)C3(C)C [Docetaxel]
- weight loss ([2]; docetaxel monotherapy group 3 mg/kg q7dx4, FaDuDD xenografted mice): approx. −5%
- GDF4 (MDA-MB-453 tumors [3]; docetaxel 3 mg/kg i.v. q7dx4): 0.8
- T4T (MDA-MB-453 tumors [3]; docetaxel 3 mg/kg i.v. q7dx4): 9.0 days
- T/C (d 16) (MDA-MB-453 tumors [3]; docetaxel 3 mg/kg i.v. q7dx4): 102%
- GDF4 (MDA-MB-453 tumors [3]; docetaxel 6 mg/kg i.v. q7dx4): 1.3
- T4T (MDA-MB-453 tumors [3]; docetaxel 6 mg/kg i.v. q7dx4): 14 days and 13.9 days
- T/C (d 16) (MDA-MB-453 tumors [3]; docetaxel 6 mg/kg i.v. q7dx4): 71%
- GDF4 (FaDuDD tumors [4]): 1.9
- T4T (FaDuDD tumors [4]): 13.5 days
- T/C (d 16) (FaDuDD tumors [4]): 56%

Molecule: CC(=O)O[C@H]1C(=O)[C@@]2(C)[C@H]([C@H](OC(=O)c3ccccc3)[C@]3(O)C[C@H](OC(=O)[C@H](O)[C@@H](NC(=O)c4ccccc4)c4ccccc4)C(C)=C1C3(C)C)[C@]1(OC(C)=O)CO[C@@H]1C[C@@H]2O [Paclitaxel, reference compound]
- T/C (median relative tumor volumes of treated versus control groups) ([5]; paclitaxel monotherapy 10 mg/kg i.v. on first day): 50%
- T/C (median relative tumor volumes of treated versus control groups) ([5]; paclitaxel monotherapy 20 mg/kg i.v. on first day): 13%
- Initial Tumor Doubling Time (FaDu tumors [6]; BIWI 1 7 mg/kg i.v. day 1,3,5,8,10, paclitaxel 10 mg/kg i.p. day 2,4,6,9,11,13): 7 days
- Complete Regression (FaDu tumors [6]; [11]): 0/8
- Growth Delay Factor (FaDu tumors [6]; [11]): 0.75

Molecule: COc1cccc2c1C(=O)c1c(O)c3c(c(O)c1C2=O)C[C@@](O)(C(=O)CO)C[C@@H]3O[C@H]1C[C@H](N)[C@H](O)[C@H](C)O1 [Doxorubicin, reference compound]
- animals with transient weight loss of more than 12% [7]: two
- GDF4 (MDA-MB-453 tumors [8]): 1.0
- T/C (d13) (MDA-MB-453 tumors [8]): 66%

Molecule: COc1cc2cc(c1Cl)N(C)C(=O)C[C@H](OC(=O)[C@H](C)N(C)C(=O)CCS)[C@]1(C)O[C@H]1[C@H](C)[C@@H]1C[C@@](O)(NC(=O)O1)[C@H](OC)/C=C/C=C(\C)C2 [DM1, N^2′-deacetyl-N^2′-(3-mercapto-1-oxopropyl)-Maytansine]
- concentration toxic to cells in vitro (cells): about 10^−10 M

Molecule: BIWA 4
- anti-tumor effect (A431 tumors): no anti-tumor effect
- tumor volume doubling time (A431 tumors): approximately 5 days
- anti-tumor effect (FaDu tumors [9]): no anti-tumor effect
- tumor volume doubling time (FaDu tumors [9]): approximately 5 days
- Kd [10]: 1 nM

From patent publication US20050244413A1, “Compositions and methods for treating cancer using cytotoxic CD44 antibody immunoconjugates and chemotherapeutic agents” (priority 2002, published 2005)
